Patent publication US20240270741A1 (Cogent Biosciences, Inc., priority 2023, published 2024)

Molecular target: FGFR2 (Homo sapiens, UniProt P21802)
Assay: FGFR wild type enzyme assay (HTRF KinEASE-TK), FGFR2
Settings: Enz FGFR2 (nM), FGFR2 wild type enzyme
Experimental: Activity against FGFR wild type and mutant enzymes were determined in biochemical assays using purified intracellular domains of the respective isoforms using HTRF KinEASE-TK assay technology from CisBio, now PerkinElmer. (Catalogue number 62TK0PEC). Briefly test compounds were tested in 11 point 1:3 serial dilutions, typical final concentration ranges from 10,000 nM to 0.17 nM. Test compounds were dissolved in DMSO and added to assay plates using acoustic transfer. Enzyme was pre-incubated with test compound for 30 minutes and the assay was initiated by addition of ATP and TK-peptide substrate. After 60 minutes at room temperature the reaction was quenched with detection reagent and incubated for an additional 60 minutes at room temperature. The plates were read using a multimode reader and the emission ratio of 665 nm to 615 nm was determined. This ratio was converted to percent of control (POC). [1-(high control-sample signal)/(high control-low control)]*100. Wells without compound were used to determine high control values and wells without enzyme were used to determine low control values. The POC values were fit using a four-parameter logistic model and the value where the fit curve was equal to 50 POC was reported as the IC50 using the Signals Vitro Vivo software package (PerkinElmer). Final assay conditions were: 50 mM HEPES pH7.5, 10 mM MgCl2, 1 mM EDTA, 0.01% Brij-35, 2 mM MnCl2, 1 mM DTT, and 0.5 uM TK-peptide.

FGFR2, sequence (P21802 399-821 limits assumed): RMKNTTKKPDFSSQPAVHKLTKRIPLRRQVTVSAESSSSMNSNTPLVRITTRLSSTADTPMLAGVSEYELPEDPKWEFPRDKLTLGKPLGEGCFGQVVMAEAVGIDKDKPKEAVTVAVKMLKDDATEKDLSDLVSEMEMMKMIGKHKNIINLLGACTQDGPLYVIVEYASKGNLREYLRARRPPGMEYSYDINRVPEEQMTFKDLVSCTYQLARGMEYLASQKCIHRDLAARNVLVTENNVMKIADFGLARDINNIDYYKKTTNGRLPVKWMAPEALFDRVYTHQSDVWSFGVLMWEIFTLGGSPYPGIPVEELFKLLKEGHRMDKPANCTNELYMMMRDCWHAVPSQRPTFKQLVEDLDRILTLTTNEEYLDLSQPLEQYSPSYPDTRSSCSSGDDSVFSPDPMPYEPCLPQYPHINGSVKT

Row | IC50 [nM] | SMILES
1 | 3 | CC(=O)N1[C@@H]2CC[C@H]1C[C@H](n1ncc(-c3cc(Sc4ncccc4F)c4c(C#N)cnn4c3)c1C)C2 [Example 263, 6-(1-((1R,3s,5S)-8-acetyl-8-azabicyclo[3.2.1]octan-3-yl)-5-methyl-1H-pyrazol-4-yl)-4-((3-fluoropyridin-2-yl)thio)pyrazolo[1,5-a]pyridine-3-carbonitrile]
2 | 1 | Cc1c(-c2cc(Sc3ccccc3C#N)c3c(C#N)cnn3c2)cnn1[C@H]1C[C@H]2CC[C@@H](C1)N2C [Example 264, 4-((2-cyanophenyl)thio)-6-(5-methyl-1-((1R,3r,5S)-8-methyl-8-azabicyclo[3.2.1]octan-3-yl)-1H-pyrazol-4-yl)pyrazolo[1,5-a]pyridine-3-carbonitrile]
3 | 0.4 | Cc1c(-c2cc(Sc3ccccc3C#N)c3c(C#N)cnn3c2)cnn1[C@@H]1C[C@H]2CC[C@@H](C1)N2C [Example 265, 4-((2-cyanophenyl)thio)-6-(5-methyl-1-((1R,3s,5S)-8-methyl-8-azabicyclo[3.2.1]octan-3-yl)-1H-pyrazol-4-yl)pyrazolo[1,5-a]pyridine-3-carbonitrile]
4 | 0.5 | Cc1c(-c2cc(Sc3ccccc3C#N)c3c(C#N)cnn3c2)cnn1C1CCN(CC(=O)N(C)C)CC1 [Example 266, 2-(4-(4-(3-cyano-4-((2-cyanophenyl)thio)pyrazolo [1,5-a]pyridin-6-yl)-5-methyl-1H-pyrazol-1-yl)piperidin-1-yl)-N,N-dimethylacetamide]
5 | 0.6 | Cc1c(-c2cc(Sc3ccccc3C#N)c3c(C#N)cnn3c2)cnn1C1CCN(Cc2ccccn2)CC1 [Example 267, 4-((2-cyanophenyl)thio)-6-(5-methyl-1-(1-(pyridin-2-ylmethyl)piperidin-4-yl)-1H-pyrazol-4-yl)pyrazolo[1,5-a]pyridine-3-carbonitrile]
6 | 0.4 | Cc1c(-c2cc(Sc3ccccc3C#N)c3c(C#N)cnn3c2)cnn1[C@H]1CC[C@@H](NC(=O)C(C)(C)O)CC1 [Example 268, N-((1s,4s)-4-(4-(3-cyano-4-((2-cyanophenyl)thio)pyrazolo [1,5-a]pyridin-6-yl)-5-methyl-1H-pyrazol-1-yl)cyclohexyl)-2-hydroxy-2-methylpropanamide]
7 | 1 | Cc1c(-c2cc(Sc3ncccc3F)c3c(C#N)cnn3c2)cnn1[C@H]1CC[C@@H](NCC(=O)N(C)C)CC1 [Example 269, 2-(((1s,4s)-4-(4-(3-cyano-4-((3-fluoropyridin-2-yl)thio)pyrazolo[1,5-a]pyridin-6-yl)-5-methyl-1H-pyrazol-1-yl)cyclohexyl)amino)-N,N-dimethylacetamide]
8 | 0.7 | Cc1c(-c2cc(Sc3ncccc3F)c3c(C#N)cnn3c2)cnn1[C@H]1CC[C@@H](NCc2ccccn2)CC1 [Example 270, 4-((3-fluoropyridin-2-yl)thio)-6-(5-methyl-1-((1s,4s)-4-((pyridin-2-ylmethyl)amino)cyclohex-yl)-1H-pyrazol-4-yl)pyrazolo[1,5-a]pyridine-3-carbonitrile]
9 | 1 | Cc1c(-c2cc(Sc3ncccc3F)c3c(C#N)cnn3c2)cnn1[C@H]1CC[C@@H](NC(=O)C(C)(C)O)CC1 [Example 271, N-((1s,4s)-4-(4-(3-cyano-4-((3-fluoropyridin-2-yl)thio)pyrazolo[1,5-a]pyridin-6-yl)-5-methyl-1H-pyrazol-1-yl)cyclohexyl)-2-hydroxy-2-methylpropanamide]
10 | 1 | CC(=O)N[C@H]1CC[C@H](n2ncc(-c3cc(Sc4ccccc4C#N)c4c(C#N)cnn4c3)c2C)CC1 [Example 272, N-((1r,4r)-4-(4-(3-cyano-4-((2-cyanophenyl)thio)pyrazolo [1,5-a]pyridin-6-yl)-5-methyl-1H-pyrazol-1-yl)cyclohexyl)acetamide]
11 | 0.5 | CC(=O)N[C@H]1CC[C@@H](n2ncc(-c3cc(Sc4ccccc4C#N)c4c(C#N)cnn4c3)c2C)CC1 [Example 273, N-((1s,4s)-4-(4-(3-cyano-4-((2-cyanophenyl)thio)pyrazolo [1,5-a]pyridin-6-yl)-5-methyl-1H-pyrazol-1-yl)cyclohexyl)acetamide]
12 | 1 | CC(=O)N[C@H]1CC[C@H](n2ncc(-c3cc(Sc4ccc(F)cc4C#N)c4c(C#N)cnn4c3)c2C)CC1 [Example 274, N-((1r,4r)-4-(4-(3-cyano-4-((2-cyano-4-fluorophenyl)thio)pyrazolo [1,5-a]pyridin-6-yl)-5-methyl-1H-pyrazol-1-yl)cyclohexyl)acetamide]
13 | 1 | Cc1c(-c2cc(Sc3ccc(F)cc3C#N)c3c(C#N)cnn3c2)cnn1[C@H]1CC[C@H](O)CC1 [Example 275, 4-(2-cyano-4-fluoro-phenyl)sulfanyl-6-[1-(4-hydroxycyclohexyl)-5-methyl-pyrazol-4-yl]pyrazolo[1,5-a]pyridine-3-carbonitrile]
14 | 3 | Cc1c(-c2cc(Sc3ncccc3F)c3c(C#N)cnn3c2)cnn1[C@H]1CCNC[C@@H]1O [Example 276, 4-[(3-fluoro-2-pyridyl)sulfanyl]-6-[1-[(3S,4S)-3-hydroxy-4-piperidyl]-5-methylpyrazol-4-yl]pyrazolo[1,5-a]pyridine-3-carbonitrile]
15 | 15 | Cc1c(-c2cc(Sc3ncccc3F)c3c(C#N)cnn3c2)cnn1[C@@H]1CCNC[C@H]1O [Example 277, 4-((3-fluoropyridin-2-yl)thio)-6-(1-((3R,4R)-3-hydroxypiperidin-4-yl)-5-methyl-1H-pyrazol-4-yl)pyrazolo[1,5-a]pyridine-3-carbonitrile]
16 | 4 | CC(=O)N1CCO[C@@H](Cn2ncc(-c3cc(Sc4ccccc4C#N)c4c(C#N)cnn4c3)c2C)C1 [Example 278, (R)-6-(1-((4-acetylmorpholin-2-yl)methyl)-5-methyl-1H-pyrazol-4-yl)-4-((2-cyanophenyl)thio)pyrazolo [1,5-a]pyridine-3-carbonitrile]
17 | 3 | CC(=O)N1CCO[C@H](Cn2ncc(-c3cc(Sc4ccccc4C#N)c4c(C#N)cnn4c3)c2C)C1 [Example 279, (S)-6-(1-((4-acetylmorpholin-2-yl)methyl)-5-methyl-1H-pyrazol-4-yl)-4-((2-cyanophenyl)thio)pyrazolo [1,5-a]pyridine-3-carbonitrile]
18 | 12 | CC(=O)N1CCO[C@@H](Cn2ncc(-c3cc(Sc4ncccc4F)c4c(C#N)cnn4c3)c2C)C1 [Example 280, (R)-6-(1-((4-acetylmorpholin-2-yl)methyl)-5-methyl-1H-pyrazol-4-yl)-4-((3-fluoropyridin-2-yl)thio)pyrazolo[1,5-a]pyridine-3-carbonitrile]
19 | 2 | Cc1c(-c2cc(Sc3ncccc3F)c3c(C#N)cnn3c2)cnn1[C@H]1CC[C@@H](CO)CC1 [Example 281, 4-((3-fluoropyridin-2-yl)thio)-6-(1-((1s,4s)-4-(hydroxymethyl)cyclohex-yl)-5-methyl-1H-pyrazol-4-yl)pyrazolo[1,5-a]pyridine-3-carbonitril]
20 | 1 | Cc1c(-c2cc(Sc3ncccc3F)c3c(C#N)cnn3c2)cnn1[C@H]1CC[C@@](C)(N)CC1 [Example 282, 6-(1-((1s,4s)-4-amino-4-methylcyclohexyl)-5-methyl-1H-pyrazol-4-yl)-4-((3-fluoropyridin-2-yl)thio)pyrazolo[1,5-a]pyridine-3-carbonitrile]
21 | 0.4 | Cc1c(-c2cc(Sc3ccccc3C#N)c3c(C#N)cnn3c2)cnn1[C@H]1CC[C@H](N(C)CCO)CC1 [Example 284, 4-((2-cyanophenyl)thio)-6-(1-((1r,4SR)-4-((2-hydroxyethyl)(methyl)ami-no)cyclohexyl)-5-methyl-1H-pyrazol-4-yl)pyrazolo[1,5-a]pyridine-3-carbonitrile]
22 | 1 | Cc1c(-c2cc(Sc3ccccc3C#N)c3c(C#N)cnn3c2)cnn1[C@H]1CC[C@@H](NS(C)(=O)=O)CC1 [Example 285, N-((1s,4s)-4-(4-(3-cyano-4-((2-cyanophenyl)thio)pyrazolo [1,5-a]pyridin-6-yl)-5-methyl-1H-pyrazol-1-y)cyclohexyl)methane-sulfonamide]
23 | 1 | Cc1c(-c2cc(Sc3ccccc3C#N)c3c(C#N)cnn3c2)cnn1C1CCN(Cc2ncccn2)CC1 [Example 286, 4-((2-cyanophenyl)thio)-6-(5-methyl-1-(1-(pyrimidin-2-ylmethyl)piperidin-4-yl)-1H-pyrazol-4-yl)pyrazolo[1,5-a]pyridine-3-carbonitrile]
24 | 0.4 | Cc1c(-c2cc(Sc3ccccc3C#N)c3c(C#N)cnn3c2)cnn1[C@H]1CC[C@@H](NCc2ccccn2)CC1 [Example 287, 4-((2-cyanophenyl)thio)-6-(5-methyl-1-((1s,4s)-4-((pyridin-2-ylmethyl)amino)cyclohex-yl)-1H-pyrazol-4-yl)pyrazolo[1,5-a]pyridine-3-carbonitrile]
25 | 1 | Cc1c(-c2cc(Sc3ccc(F)cc3C#N)c3c(C#N)cnn3c2)cnn1[C@H]1CC[C@@H](O)CC1 [Example 288, 4-((2-cyano-4-fluorophenyl)thio)-6-(1-((1s,4s)-4-hydroxycyclohexyl)-5-methyl-1H-pyrazol-4-yl)pyrazolo[1,5-a]pyridine-3-carbonitrile]
26 | 0.5 | Cc1c(-c2cc(Sc3ccc(F)cc3C#N)c3c(C#N)cnn3c2)cnn1[C@@H]1C[C@H]2CC[C@@H](C1)N2C [Example 289, 4-((2-cyano-4-fluorophenyl)thio)-6-(5-methyl-1-((1R,3s,5S)-8-methyl-8-azabicyclo[3.2.1]octan-3-yl)-1H-pyrazol-4-yl)pyrazolo[1,5-a]pyridine-3-carbonitrile]
27 | 5 | Cc1c(-c2cc(Sc3ccc(F)cn3)c3c(C#N)cnn3c2)cnn1[C@H]1CC[C@@H](O)CC1 [Example 290, 4-((5-fluoropyridin-2-yl)thio)-6-(1-((1s,4s)-4-hydroxycyclohexyl)-5-methyl-1H-pyrazol-4-yl)pyrazolo[1,5-a]pyridine-3-carbonitrile]
28 | 3 | Cc1c(-c2cc(Sc3ccc(F)cn3)c3c(C#N)cnn3c2)cnn1[C@H]1CC[C@@](C)(N)CC1 [Example 291, 6-(1-((1s,4s)-4-amino-4-methylcyclohexyl)-5-methyl-1H-pyrazol-4-yl)-4-((5-fluoropyridin-2-yl)thio)pyrazolo[1,5-a]pyridine-3-carbonitrile]
